Experimental findings from patent US7943376B2, “Platelet derived growth factor (PDGF)-derived neurospheres define a novel class of progenitor cells” (Stem Cell Therapuetics Inc., priority 2001, dated 2011) are described below.

Several values for one entry are separate records, joined by “and”; a condition that tells them apart may be missing. Equal values may be shown once. Entries after “also recorded” stand apart in the source; their conditions may differ.

Assay [1] relates to medial ganglionic eminence (MGE). Put plainly: Neurosphere formation using medial ganglionic eminence. The assay is classed as cell-based, mice. The note with it: MGE from E14 embryos, cultured as in Example 1 with EGF or PDGF; n = 2 or 3. The text has this: (§1) In order to locate the cells that give rise to the novel progenitor cells described herein, we dissected ganglionic eminence to two portions. Thus, the ganglionic eminence was isolated from E14 embryos of mice, and the medial ganglionic eminence (MGE) was separated from the lateral ganglionic eminence (LGE). MGE and LGE were then dissociated and cultured as described in Example 1. The resulting primary culture was exposed to EGF or PDGF in addition to the defined culture media, and the number of neurospheres were counted and summarized below.

Assay [2] concerns PDGF primary neurospheres. Put plainly: Secondary neurosphere formation from dissociated PDGF-derived primary neurospheres. The assay is classed as cell-based, mouse. The note with it: single PDGF primary neurospheres dissociated in 20 ng/ml EGF or 100 ng/ml PDGF-AA; 7 or more days in vitro. Here is the method: Single PDGF primary neurospheres prepared as described in Example 1 were transferred into 96-well plates and mechanically dissociated in either the presence of 20 ng/ml EGF (Peprotech) or 100 ng/ml PDGF-AA. The formation of secondary neurospheres was assayed after 7 or more days in culture in vitro.

For assay [3], the system named is primary EGF neurospheres. Put plainly: Secondary neurosphere formation from dissociated EGF-derived primary neurospheres. The assay is classed as cell-based, mouse. The note with it: single primary EGF-generated neurospheres dissociated in EGF- or PDGF-containing media; eight wells per condition; Exp. #1 and #2. The procedure:
To determine if the neurospheres derived in EGF-containing media have different proliferation properties as those of PDGF-generated neurospheres, primary EGF neurospheres were generated from embryonic day 14 striatum by culturing dissociated striatum in EGF (20 ng/ml) containing define culture media at a cell density of 200,000 cells/ml. Subsequently, individual neurospheres were isolated, placed in individual wells in either PDGF or EGF containing media, and dissociated mechanically. The numbers of secondary neurospheres that came from a single primary EGF-generated neurospheres are given below (eight wells for each condition; numbers indicate average number of secondary neurospheres/well): […]

The subject of assay [4] is lateral ganglionic eminence (LGE). Briefly: Neurosphere formation using lateral ganglionic eminence. The assay is classed as cell-based, mice. The note with it: LGE from E14 embryos, cultured as in Example 1 with EGF or PDGF; n = 2 or 3.
Description: as §1

In assay [5] the test system is brain tissue prepared as described in Example 1 (E14 striatum). Put plainly: Combined effect of PDGF and EGF on number of neurospheres formed. In kind it is cell-based, mouse. Particulars: cultured in PDGF, EGF, or the combination of PDGF and EGF. Here is the method:
(§2) E14 striatum was mechanically dissociated as previously described (for example see U.S. Pat. Nos. 5,750,376; 5,980,885; or 5,851,832) and plated at 10,000 cells/ml in 6 well plates in defined culture media plus 100 ng/ml of PDGF-AA (Peprotech). The composition of defined culture media is as follows: • DMEM/F12 (1:1) • glucose (0.6%) • glutamine (2 mM) • sodium bicarbonate (3 mM) • HEPES (5 mM) • insulin (25 μg/ml) • transferrin (100 μg/ml) • progesterone (20 nM) • putrescine (60 μM) • selenium chloride (30 nM)
We also tested the effect of combining PDGF and EGF on the number of neurospheres formed. Thus, brain tissue was prepared as described in Example 1 and cultured in the presence of PDGF, EGF, or the combination of PDGF and EGF.

The test system of assay [6] is E14 striatum. Briefly: PDGF-induced production of primary neurospheres from dissociated E14 striatum. The assay is classed as cell-based, mouse. The procedure:
as §2
Neurospheres, which are clusters of neural cells derived from single cells, formed after 7 days of culture in vitro (DIV). Six wells per experiment were counted for neurosphere production and the results are shown below:
In control experiments, wherein PDGF was omitted from the culture media, no neurospheres formed. Therefore, PDGF is capable of inducing neurosphere production from single precursor cells in the absence of serum, EGF, TGF-α and FGF-2.

Assay [7] deals with PDGF-derived neurospheres. Put plainly: Effect of Tyrphostin AG 1296 on primary neurosphere formation in response to PDGF. In kind it is cell-based, mouse. The procedure: (§3) In order to determine if the PDGF-induced primary neurosphere formation is mediated by the PDGF receptor kinase, a selective PDGF receptor kinase inhibitor, Tyrphostin AG 1296, was added to neurosphere culture. Primary cells were cultured at 10,000 cells/ml in the presence of either EGF or PDGF, plus 5 μM of Tyrphostin AG 1296 (Sigma) or DMSO in the same volume as Tyrphostin (DMSO being the solvent for Tyrphostin). Results are expressed below as the percentage of neurospheres formed, with the number of PDGF- or EGF-derived neurospheres arbitrarily set at 100%, respectively.

Assay [8] has as its system EGF-derived neurospheres. Briefly: Effect of Tyrphostin AG 1296 on primary neurosphere formation in response to EGF. The assay is classed as cell-based, mouse. Here is the method: as §3

Consider “EGF: epidermal growth factor (Peprotech), used at 20 ng/ml”, for which the figures for the “Average number of neurospheres” value in assay [1], in assay [4] and in assay [5] were 16.9 ± 2.87, 9.64 ± 1.59 and 80.5 ± 8.57, respectively. In addition, in assay [2], the “Average # of secondary neurospheres formed/well” value is on record as 3.12 ± 1.64 (n = 3). The “average number of secondary neurospheres/well” value in assay [3] is 27 and 14.1.

“PDGF: platelet derived growth factor; PDGF-AA (Peprotech) used at 100 ng/ml”: the “Average number of neurospheres” value was determined as 10.22 ± 1.11 in assay [1], 1.27 ± 0.45 in assay [4] and 73.36 ± 7.13 in assay [5]. In addition, in assay [2], the “Average # of secondary neurospheres formed/well” value turned out to be 0. Also, the “Average number of neurospheres produced/well, average of experiments 1-6” value in assay [6] (100 ng/ml PDGF-AA, 10,000 cells/ml, 7 DIV, mean over six experiments) is reported as “average = 17.7 ± 5.0”. The “Average number of neurospheres produced/well” value in assay [6] (100 ng/ml PDGF-AA, 10,000 cells/ml, defined media, 7 DIV, single experiments, six wells each) is 14.5 and 9.2 and 8.6 and 7.7; in assay [6] (as E1, experiments marked *: PDGF used immediately after reconstitution in defined culture media), 34.3* and 32.5*. For the same substance, the “Potency when used immediately after reconstitution in defined culture media” value in assay [6] (relative to PDGF not used immediately after reconstitution) is listed as “*PDGF appears to be approximately 3 fold more potent when used immediately after reconstitution in defined culture media”. In addition, in assay [3], the “average number of secondary neurospheres/well” value is 21.5 and 26.7.

Consider Tyrphostin AG 1296, for which the “Effect on primary neurosphere formation induced by PDGF (in words)” value in assay [7] (5 μM Tyrphostin AG 1296) is reported as “inhibited; also recorded: almost abolished”. Further, the “percentage of neurospheres formed” value in assay [7] (PDGF plus 5 μM Tyrphostin AG 1296, 10,000 cells/ml, PDGF alone set at 100%, n = 3 to 9) is given as 10%; in assay [8] (EGF plus 5 μM Tyrphostin AG 1296, 10,000 cells/ml, EGF alone set at 100%, n = 3 to 9), 55%. In addition, the “Effect on EGF-derived neurosphere formation (in words)” value in assay [8] (5 μM Tyrphostin AG 1296) is reported as “inhibited by Tyrphostin AG 1296 to some extent”.
